Reference: patent publication US7141661B2, “Non-steroidal anti-inflammatory drug activated gene with anti-tumorigenic properties” (The United States of America as represented by the …, priority 2000, dated 2006)

Legend:
Assay type in all cases: cell-based, human
NAG-1 [1] = experiment: Western blot analysis of secreted NAG-1 protein from HCT-116 cells; settings: HCT-116, 100 μM INDO, 36 and 48 hr, no serum
Description: The level of secreted NAG-1 was evaluated using Western blot analysis with anti-human-NAG-1 antibody (generously provided by Dr. Paralkar of Pfizer). HCT-116 cells were grown to 60–80% confluency in 10 cm plates followed by 48 hr treatment in the absence of serum with either NSAIDs or TGZ. The media were harvested and concentrated approximately 15-fold using Centriprep 10 concentrators (Amicon). Proteins (30 μg) were separated by 15% SDS-PAGE and transferred for 1 hr onto nitrocellulose membrane (Schleicher & Schuell). The blots were blocked for 1 hr with 5% skim milk in TBS/Tween 0.05%, and probed with anti-NAG-1 antibody (1 μg/ml in TBS-0.2%-Tween20) at […] overnight. After washing, the blots were treated with horseradish peroxidase-conjugated secondary antibody for 1 hr and washed several times. The signal was detected by enhanced chemiluminescence system (AMERSHAM) and autoradiography.
HCT-116 cells were treated with 100 μM INDO in the absence of serum for various times. In FIG. 1B, left panel. 10 μg of total RNA was loaded in each lane. Northern blotting was performed using the NAG-1 probe and re-probed with β-actin probe. The hybridization signals were quantitated using Scion Image software (Scion). Levels of the 1.3 kb NAG-1 transcript were normalized to the levels of β-actin transcripts and represented relative to 0 hr treatment. […] The signal was detected by ECL reagent (AMERSHAM).

NAG-1 [2] = experiment: Northern blot NAG-1 induction in U937 leukemia cells; settings: INDO treatment, 24 hr
Description: NSAID-induced apoptosis is not restricted to colorectal cells, as NSAIDs can induce apoptosis in breast, lung, leukemia, and prostate cell lines. To test for the induction of NAG-1 by NSAIDs in different cell lines, A549 lung epithelial cells, MCF-7 mammary cells, PC-3 prostate cancer cells, and U937 leukemia cell lines were treated with several concentrations of INDO and aspirin. Then, as described above, Northern blot analysis was performed. […] Quiescent cells were grown for 24 hr in the presence of indicated NSAIDs. Total RNAs were isolated and subjected to Northern analysis using NAG-1 and β-actin as probes. The blots contained 10 μg of total RNA from INDO- or Aspirin (Asp)-treated cells with indicated doses. “V” indicates total RNAs from vehicle (0.2% DMSO) treated cells. The results shown are representative of those obtained in two experiments.

HCT-116 cells = experiment: Apoptosis by FACS in HCT-116 cells stably transfected with vector, sense or antisense NAG-1; settings: 100 μM, 48 hr
Text: (§1) HCT-116 cells were stably transfected with an expression vector containing the full-length NAG-1 coding region in the sense and antisense orientations. The sense cells expressed NAG-1 protein at a level that was 2.0–2.5 fold greater than the vector transfected cells, while the anti-sense cells expressed slightly lower NAG-1 levels compared to vector transfected cells. […] The full-length NAG-1 (sense strand and antisense strand) was cloned into the pCDNA3.1 expression vector and transfected into HCT-116 cells. Each cell was grown under G418 (500 μg/ml) for 2 weeks and treated with either vehicle or INDO (100 μM). After growing for 48 hr, the media was harvested, concentrated, and subjected to Western analysis. Thirty μg of total protein was loaded in each lane, and the arrow indicates the NAG-1 protein band.
Despite repeated attempts, construction of NAG-1 highly expressing cells which may be linked to high rates of apoptosis were not generated (data not shown). […] This could be due to effects on cell proliferation and/or an increase in cell death. […] The stably transfected cells were then incubated with 100 μM indomethacin for 48 hr and the percentage of cells in apoptosis determined by FACS analysis as described in Example 1. The data shown in FIG. 6 represent mean±S.D. Indomethacin enhanced the percentage of apoptotic cells by approximately 2 fold in the vector-HCT-116 and sense cells.

NAG-1 [3] = experiment: Western analysis of NAG-1 in stably transfected HCT-116 cells; settings: antisense HCT-116 cells, 100 μM, 48 hr
Text: as §1

NAG-1 [4] = experiment: Northern blot analysis of NAG-1 mRNA expression in HCT-116 cells; settings: HCT-116, 100 μM INDO, 48 hr, no serum

COc1ccc2c(c1)c(CC(=O)O)c(C)n2C(=O)c1ccc(Cl)cc1 [Indomethacin]
NAG-1 protein expression (NAG-1 [1]): marked increase
NAG-1 expression (NAG-1 [2]): only a modest increase
Stimulation of apoptosis (HCT-116 cells; antisense HCT-116 cells): did not stimulate apoptosis
Enhancement of percentage of apoptotic cells (HCT-116 cells; sense NAG-1 HCT-116 cells): approximately 2 fold
Enhancement of percentage of apoptotic cells (HCT-116 cells; vector-HCT-116 cells): approximately 2 fold
Expression of NAG-1 (NAG-1 [3]): did not stimulate apoptosis or increase the expression of NAG-1
NAG-1 mRNA expression (NAG-1 [4]): further increase
